Experimental data reported in patent publication EP2340832A1, “Morphinan-6-one compounds for the treatment or prevention of neurodegenerative diseases” (Universität Innsbruck, priority 2009, dated 2011).
Where two headings read alike, the source gives them in different places.

How the values were obtained:
[1] = target: T1, σ receptors labelled by [^3H](+)-pentazocine (σ1) (Cavia porcellus, UniProt Q60492); assay: Sigma receptor binding assay, [3H](+)-pentazocine; design: species or system guinea pig
T1 construct: from tissue; host or cells: guinea pig brain membranes
Protocol: (§1) Filters were washed three times with 5 ml of ice-cold 10 mM Tris-HCI buffer (pH 8). The bound radioactivity was measured by liquid scintillation counting (Beckman Coulter™ LS6500). […] The values are expressed as the mean ± S.E.M of 2 - 4 independent experiments, each performed in duplicate.

µ opioid receptor [2] = target: T2, µ opioid receptor (Rattus norvegicus, UniProt P33535); assay: Opioid receptor binding assay, [3H]DAMGO, rat brain membranes; design: Membrane fractions were prepared from Sprague-Dawley rat or guinea pig brains; from tissue; host or cells: Sprague-Dawley rat brain (without cerebella) membranes; species or system Sprague-Dawley rat
Protocol: (§2) Briefly, brains without cerebella were homogenised on ice in 5 volumes of ice-cold 50 mM Tris-HCI buffer (pH 7.4) and diluted in 30 volumes of the same buffer. After centrifugation at 40,000 x g for 20 min at 4°C, the pellets were resuspended in 30 volumes of Tris-HCI buffer and incubated at 37 °C for 30 min (rat brain) or for 10 min (guinea pig brain). The centrifugation step was repeated and the final pellets were resuspended in 5 volumes of 50 mM Tris-HCI buffer (pH 7.4) containing 0.32 M sucrose to give a protein concentration of 4 - 6 mg/ml. Protein concentration was determined by the method of Bradford using bovine serum albumin as standard.
(§3) Binding experiments were performed in 50 mM Tris-HCI buffer (pH 7.4) in a final volume of 1 ml containing 0.3 - 0.5 mg protein and different concentrations of the compounds. […] Guinea pig brain membranes were incubated with [^3H]U69,593 (30 min, 30 °C). Non-specific binding was determined in the presence of 10 µM unlabeled naloxone. […] Inhibition constant (Ki) values were calculated from competition binding curves using GraphPad Prism (San Diego, CA, USA) program. The values are expressed as the mean ± S.E.M of 2-4 independent experiments, each performed in duplicate.
(§4) The morphinan-6-one compounds of the present invention were evaluated in in vitro receptor binding assays for their interaction abilities with µ, δ and k opioid receptors. […] The affinities of the compounds at k opioid receptors were determined by displacement of [^3H]U69,593 using guinea pig brain membranes.

k opioid receptors = target: T3, k opioid receptors (Cavia porcellus, UniProt P41144); assay: Opioid receptor binding assay, [3H]U69,593, guinea pig brain membranes
T3 construct: Membrane fractions were prepared from Sprague-Dawley rat or guinea pig brains; from tissue; host or cells: guinea pig brain (without cerebella) membranes
Protocol: as §2, §3, §4

[3] = target: T4, electric eel AChE (EC 3.1.1.7) (Electrophorus electricus, UniProt O42275); assay: Spectrophotometric assay for AChE inhibitory activity (modified Ellman's method); assay type: biochemical
T4 construct: purchased Sigma-Aldrich, Germany

C57BL/6N female mice [4] = assay: Object recognition task; conditions: for object recognition (memory): normal mice; for effect on scopolamine-induced impairment of object recognition: scopolamine-pretreated mice, dose not given
C57BL/6N female mice [5] = assay: T-maze continuous alternation
[6] = tested on: extracellular ACh concentration in the nucleus accumbens; conditions: for 0AUC120 min (% increase x min) Mean ± SEM: 0 to 120 min; for Increase in ACh release (Peak increase as % of basal output): nucleus accumbens
δ opioid receptors = target: T5, δ opioid receptors (Rattus norvegicus, UniProt P33533); assay: Opioid receptor binding assay, [3H][Ile5,6]deltorphin II, rat brain membranes; design: species or system Sprague-Dawley rat
T5 construct: Membrane fractions were prepared from Sprague-Dawley rat or guinea pig brains; from tissue; host or cells: Sprague-Dawley rat brain (without cerebella) membranes
Protocol: as §2, §3, §4

K receptor = target: T6, K receptor (Cavia porcellus, UniProt P41144); assay type: biochemical, guinea pig
T6 construct: Membrane fractions were prepared from Sprague-Dawley rat or guinea pig brains; from tissue; host or cells: guinea pig brain (without cerebella) membranes

δ receptor = target: T7, δ receptor (Rattus norvegicus, UniProt P33533); assay: [35S]GTPγS functional assay, rat brain membranes, δ receptor; assay type: biochemical, Sprague-Dawley rat
T7 construct: Membrane fractions were prepared from Sprague-Dawley rat or guinea pig brains; from tissue; host or cells: Sprague-Dawley rat brain (without cerebella) membranes
Protocol: (§5) Membrane fractions were prepared from Sprague-Dawley rat or guinea pig brains as described above. To determine binding of [^35S]GTPyS, rat or guinea pig brain membranes (10 µg of protein) were incubated for 60 min at 30 °C in Tris-EGTA buffer (50 mM Tris-HCl buffer, 3 mM MgCl2, 1 mM EGTA, […], pH 7.4) containing 30 µM GDP, 0.05 nM [^35S]GTPyS and appropriate concentrations of the respective compounds according to the present invention in a final volume of 1 ml. The reaction was terminated by vacuum filtration through Whatman GF/B glass fibre filters. Filters were washed three times with ice-cold 50 mM Tris-HCI buffer (pH 7.4) and the bound radioactivity was measured by liquid scintillation counting (Beckman Coulter™ LS6500). Basal activity was determined by subtracting the non-specific binding (measured in the presence of 100 µM unlabelled GTPyS) from the total binding (measured in the absence of the compound).
(§6) Stimulation produced by the compound is given as percentage of the basal activity (given as 100%). Functional data, EC50 (nM; half maximal effective concentration) and maximal stimulation Emax (% stimulation over basal level; maximal effective concentration), were calculated by using nonlinear regression analysis and sigmoidal curve fitting GraphPad Prism (San Diego, CA, USA) program. The values are expressed as the mean ± S.E.M of at least 3 independent experiments, each performed in triplicate. Statistical analysis was carried out using SPSS software (SPSS Inc., Chicago, lL, USA) and the Student T-test was used to compare different assay conditions. A ρ value < 0.05 was considered statistically significant.

µ opioid receptor [7] = target: T2, µ opioid receptor; assay: [35S]GTPγS functional assay, rat brain membranes, µ receptor; assay type: biochemical, Sprague-Dawley rat; design: Membrane fractions were prepared from Sprague-Dawley rat or guinea pig brains; from tissue; host or cells: Sprague-Dawley rat brain (without cerebella) membranes; conditions: rat brain membranes
Protocol: as §5, §6

[8] = target: σ receptors labelled by [^3H]DTG (σ1 + σ2); assay: Sigma receptor binding assay, [3H]DTG; conditions: read-out: IC50 ± SEM [^3H]DTG (σ1 + σ2); guinea pig brain membranes; compounds 1-5 tested up to 10 µM
Protocol: as §1

C57BL/6N female mice [9] = assay: Open field (locomotor activity); assay type: in vivo
Description: Each mouse was used only once. […] . […] Thereafter it was replaced by the obturator.
The open field consisted of a transparent plastic box with white floor (41 x 41 x 41 cm) equipped with an automated activity monitoring system (True Scan, Coulbourn Instruments, Allentown, Pennsylvania, USA). The illumination at floor level was 150 lux. Mice were individually placed into the centre of the open field and their behaviours were tracked with the activity monitoring system. The time of locomotor activity, the overall distance travelled by the mice and the fraction of locomotor activity in the center area (center distance and center time) were monitored for 10 min. The arena was thoroughly cleaned with wet paper towels and dried at the end of each test.
Statistical analysis: All data from behavioural studies are shown as mean ± SEM. Statistical analysis was performed using the analysis of variance (ANOVA), followed by post hoc multiple comparisons Tukey-Kramer test, except comparison of alternation rates with the theoretical value of chance (defined as 50%) which was evaluated by Wilcoxon signed rank test. All statistical analyses were carried out by using the Graphpad Prism Program, version 4.0, Graphpad software, Inc.

[10] = tested on: frontal cortex synaptosomes; assay: ACh release from synaptosomes (15 mM K+-evoked [3H]-ACh release, superfusion); assay type: cell-based, male Sprague Dawley rats; conditions: 0.1 to 100 µM
Protocol: Preparation of synaptosomes: synaptosomes were prepared from brain frontal cortex of male Sprague Dawley rats (4 months old). The frontal cortex was rapidly dissected on ice and homogenized in 40 volumes of 0.32 M sucrose buffered at pH 7.4 with 0.01 M sodium phosphate. The homogenate was centrifuged at 1,000 g for 5 min. The crude synaptosomal pellet was obtained by centrifugation of the supernatant at 15,000 g for 20 min and was resuspended in 5 ml basal medium (125 mM Nacl, 3 mM KCI, 1.2 mM MgS04, 1.2 mM CaCl2, 1.0 mM NaH2PO4, 22 mM NaHCO3 and 10 mM glucose) which had been gassed with 95% O2 - 5% CO2 at 37 °C, pH 7.2 - 7.4.
Superfusion protocol: The synaptosomal suspension was incubated with [^3H]-choline (0.03 µM, 17.5x10^6 Bq/g) for 15 min at 37 °C. Then, the suspension was diluted (1:8) and aliquots were applied on filters in a continuous superfusion system with parallel chambers maintained at 37 °C. The media used for superfusion were basal medium and 15 mM K^+-containing stimulation medium. Both media were supplemented with ACh (1 µM) to facilitate the effectiveness of an allosteric potentiating ligand at the nicotine receptor and with atropine (0.1 µM) to block M2 presynaptic receptors. Synaptosomes were superfused with basal medium for 30 min to reach a constant outflow of [^3H]-ACh. Under these experimental conditions, the radioactivity released consisted largely of newly synthesized [^3H]-ACh. The K^+-stimulated release of [^3H]-ACh was determined in 2 subsequently collected fractions: 6 min basal release (superfusion with basal medium) and 6 min K^+-evoked release (superfusion for 1.5 min with 15 mM K^+-containing medium followed by […] basal medium). The test compounds galantamine, 4 and 2 were present in the superfusion medium concomitantly with 15 mM K^+ (for 1.5 min). Basal release of [^3H]-ACh (continuous superfusion with basal medium) was determined by collection of a 6 min sample followed by four subsequent 2 min samples. Aliquots of samples were mixed with scintillation liquid and the radioactivity quantified with a scintillation counter. The radioactivity bound to the filters was also measured.
Statistical analysis: The amount of [^3H]-ACh released in each sample was calculated as fraction of total synaptosomal tritium at the start of the respective collection period (tritium in the sample / sum of tritium in the respective fractions and in the synaptosomes on the filter). K^+-evoked release was expressed as percentage of basal release rate. Each n=1 represents the mean of an experiment with one synaptosomal preparation in at least 3 superfusion chambers. Statistical significance of group variances was calculated by one way ANOVA followed by Bonferroni's test.

[11] = scopolamine 0.033 µmol, compound 0.1 µmol i.c.v.

T5 sequence (P33533 whole entry): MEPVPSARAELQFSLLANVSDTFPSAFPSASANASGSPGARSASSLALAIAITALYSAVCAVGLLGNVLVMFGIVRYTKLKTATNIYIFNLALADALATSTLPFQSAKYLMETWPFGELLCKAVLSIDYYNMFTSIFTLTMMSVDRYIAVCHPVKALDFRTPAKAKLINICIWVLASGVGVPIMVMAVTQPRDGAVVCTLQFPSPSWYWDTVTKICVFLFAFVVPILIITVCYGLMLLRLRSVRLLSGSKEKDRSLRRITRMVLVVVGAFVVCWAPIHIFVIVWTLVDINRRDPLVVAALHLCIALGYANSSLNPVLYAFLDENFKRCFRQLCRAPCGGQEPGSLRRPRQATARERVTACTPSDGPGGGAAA
T3 sequence (P41144 whole entry): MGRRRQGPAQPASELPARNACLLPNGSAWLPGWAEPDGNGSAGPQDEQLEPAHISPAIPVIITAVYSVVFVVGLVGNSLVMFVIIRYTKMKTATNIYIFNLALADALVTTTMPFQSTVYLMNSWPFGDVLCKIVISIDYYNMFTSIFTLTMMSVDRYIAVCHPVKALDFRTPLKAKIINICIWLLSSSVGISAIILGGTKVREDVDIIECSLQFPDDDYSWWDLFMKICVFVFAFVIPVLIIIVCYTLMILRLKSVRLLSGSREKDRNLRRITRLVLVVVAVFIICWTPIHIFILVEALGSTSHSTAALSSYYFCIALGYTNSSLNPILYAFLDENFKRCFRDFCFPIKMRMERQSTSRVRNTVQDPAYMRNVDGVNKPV
T6 sequence (P41144 whole entry): as above
T2 sequence (P33535 whole entry): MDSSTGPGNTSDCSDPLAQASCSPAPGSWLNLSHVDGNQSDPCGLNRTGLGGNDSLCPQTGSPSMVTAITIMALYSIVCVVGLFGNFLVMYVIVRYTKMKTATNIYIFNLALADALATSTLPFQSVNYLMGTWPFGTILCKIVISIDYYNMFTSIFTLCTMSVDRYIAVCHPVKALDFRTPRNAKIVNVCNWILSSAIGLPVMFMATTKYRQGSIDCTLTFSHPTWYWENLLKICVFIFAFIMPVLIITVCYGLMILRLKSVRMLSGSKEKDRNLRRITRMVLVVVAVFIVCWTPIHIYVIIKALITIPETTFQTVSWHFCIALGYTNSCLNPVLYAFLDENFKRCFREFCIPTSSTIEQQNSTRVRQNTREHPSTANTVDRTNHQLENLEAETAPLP
T7 sequence (P33533 whole entry): as the sequence (P33533 whole entry) above
T1 sequence (Q60492 whole entry): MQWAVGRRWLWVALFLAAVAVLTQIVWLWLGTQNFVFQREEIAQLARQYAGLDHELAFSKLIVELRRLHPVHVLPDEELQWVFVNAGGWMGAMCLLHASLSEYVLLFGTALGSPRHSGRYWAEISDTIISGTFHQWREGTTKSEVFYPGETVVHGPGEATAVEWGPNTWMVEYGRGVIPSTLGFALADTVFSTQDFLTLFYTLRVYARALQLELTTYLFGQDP
T4 sequence (O42275 24-633): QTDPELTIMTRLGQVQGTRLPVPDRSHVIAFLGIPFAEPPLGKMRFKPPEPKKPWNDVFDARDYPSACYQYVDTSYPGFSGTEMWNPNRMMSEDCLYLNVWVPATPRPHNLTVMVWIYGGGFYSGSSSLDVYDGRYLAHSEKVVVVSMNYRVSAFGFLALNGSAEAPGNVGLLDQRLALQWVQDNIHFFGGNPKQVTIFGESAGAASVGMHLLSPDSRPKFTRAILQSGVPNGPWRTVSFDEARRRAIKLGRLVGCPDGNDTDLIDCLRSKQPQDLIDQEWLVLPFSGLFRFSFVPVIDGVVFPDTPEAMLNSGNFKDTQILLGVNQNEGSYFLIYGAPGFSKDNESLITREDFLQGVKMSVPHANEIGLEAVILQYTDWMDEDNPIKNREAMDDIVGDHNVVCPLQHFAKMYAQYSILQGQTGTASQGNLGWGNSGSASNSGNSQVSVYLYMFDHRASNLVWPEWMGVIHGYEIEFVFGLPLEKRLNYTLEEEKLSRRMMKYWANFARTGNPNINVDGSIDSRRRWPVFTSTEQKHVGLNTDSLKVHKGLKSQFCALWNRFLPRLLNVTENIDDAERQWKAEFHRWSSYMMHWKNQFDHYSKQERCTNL

## C=CCN1CC[C@]23CC(=O)CC[C@@]2(OC)[C@H]1Cc1cccc(OC)c13 [Compound 5, 4,14-dimethoxy-N-allyl-morphinan-6-one]
[1]
  IC50: > 10 µM
µ opioid receptor [2]
  Ki: 0.0672 µM
  binding to opioid receptor µ (in words): some µ opioid receptor affinity
µ opioid receptor [2]; from binding, Table 3
  selectivity among opioid receptor types: moderate selectivity for the µ type
K opioid receptors
  Ki: 0.328 µM
[3]; 96-well microplate, 1% DMSO, read-out: AChE inhibitory activity IC50
  IC50: 81.9 µM
C57BL/6N female mice [4]; 0.1 µmol i.c.v.
  object recognition (memory): increased the exploration ratio
C57BL/6N female mice [4]
  effect on scopolamine-induced impairment of object recognition: ineffective
C57BL/6N female mice [5]; normal mice, 0.1 µmol i.c.v.
  spontaneous alternation rate: did not influence alternation
C57BL/6N female mice [5]; [11]
  effect on scopolamine-enhanced running time: further increased
  effect on scopolamine-impaired alternation: had no effect
[6]; 0.5 µmol i.c.v.
  effect on ACh in the superfusate (in words): did not increase brain ACh
[6]; 1 µmol i.c.v.
  effect on ACh in the superfusate (in words): short peak increase
[6]; Dose 1 µmol i.c.v.
  0AUC120 min (% increase x min) Mean ± SEM: 158 ± 111 % increase x min
  Increase in ACh release (Peak increase as % of basal output): 51 ± 43%
δ opioid receptors
  Ki: 1.25 µM
K receptor
  effect on [35S]GTPγS binding stimulated by U69,593: no significant effect
K receptor; 10 µM each, guinea pig brain membranes
  [35S]GTPγS binding on co-incubation with Nor-BNI versus antagonist alone: did not produce any significant increase
K receptor; guinea pig brain membranes, compared with U69,593
  [35S]GTPγS binding in the presence of the compound alone: no increase
δ receptor; 10 µM each
  [35S]GTPγS binding on co-incubation with naltrindole versus antagonist alone: did not produce any significant increase
δ receptor; compound 10 µM, SNC 80 10 µM
  effect on [35S]GTPγS binding stimulated by SNC 80: did not cause any significant changes
µ opioid receptor [7]; 10 µM each
  [35S]GTPγS binding on co-incubation with cyprodime versus antagonist alone: did not produce any significant increase
µ opioid receptor [7]; compound 10 µM, DAMGO 10 µM
  effect on [35S]GTPγS binding stimulated by DAMGO: significantly decreased
µ opioid receptor [7]; compared with DAMGO
  [35S]GTPγS binding in the presence of the compound alone: no increase
[8]
  IC50: > 10 µM
C57BL/6N female mice [9]; 0.1 µmol i.c.v., 10 min
  general locomotion in the open field (move distance, move time): did not influence
C57BL/6N female mice [9]; dose not given
  fraction of locomotor activity in the central zone: did not influence

## O=CN1CC[C@]23c4c5cccc4OC2C(=O)CC[C@H]3[C@H]1C5 (stereo in doubt) [Compound 3, 4,5-epoxy-N-formylmorphinan-6-one]
[1]
  IC50: > 10 µM
µ opioid receptor [2]
  Ki: > 10 µM
µ opioid receptor [2]; read-out: Opioid binding affinities Ki µ receptor, [3H]DAMGO, rat brain membranes
  Ki: > 10 µM
K opioid receptors
  Ki: > 10 µM
K opioid receptors; read-out: Opioid binding affinities Ki κ receptor, [3H]U69,593, guinea pig brain membranes
  Ki: > 10 µM
[3]
  IC50: 60.3 µM
C57BL/6N female mice [4]; 0.02 µmol i.c.v.
  object recognition (memory): did not influence the object recognition
C57BL/6N female mice [4]
  effect on scopolamine-induced impairment of object recognition: ineffective
[10]
  effect on K+-evoked ACh release in frontal-cortex synaptosomes: did not influence ACh release
[6]; 1 µmol i.c.v.
  effect on ACh in the superfusate (in words): increased ACh release
[6]; 2 µmol i.c.v.
  effect on ACh in the superfusate (in words): did not influence ACh up to 160 min followed by a decline thereafter
[6]; Dose 1 µmol i.c.v.
  0AUC120 min (% increase x min) Mean ± SEM: 410 ± 227 % increase x min
  Increase in ACh release (Peak increase as % of basal output): 123 ± 91 %
[6]; Dose 2 µmol i.c.v.
  0AUC120 min (% increase x min) Mean ± SEM: 160 ± 140 % increase x min
  Increase in ACh release (Peak increase as % of basal output): 75 ± 73%
δ opioid receptors
  Ki: > 10 µM
δ opioid receptors; read-out: Opioid binding affinities Ki δ receptor, [3H][Ile5,6]deltorphin II, rat brain membranes
  Ki: > 10 µM
[8]
  IC50: > 10 µM
